Data reported in patent publication US6967207B2, “Preventive or therapeutic agents for gastric or esophageal regurgitation” (Mitsubishi Pharma Corporation, priority 2000, dated 2005).

Tests used:
fundic pouch dog [1] = test: Suppressing action on gastric acid secretion (histamine stimulation) in fundic pouch dog; assay type: in vivo; settings: for Amount of gastric juice secretion: histamine stimulation 0.2 mg/kg/hr, control 116.1 ± 12.3, mean ± standard error for 6 samples
Procedure: (§1) An effect on gastric acid secretion by stimulation under awakening was studied by using (fundic pouch dog). For preparation of the fundic pouch dog, a mongrel dog after starvation overnight was subjected to sterile ventrotomy under anesthesia using sodium pentobarbital (30 mg/kg, i.v.), and a fistula was attached to a part of the corpus ventriculi. After recovery period for two weeks, the dog was fixed to the Pavlov's stand, and gastric juice was collected every 15 minutes for 4 hours under histamine stimulation (0.2 mg/kg/hr). A volume of each collected gastric juice was recorded, and the juice was titrated with 0.01N NaOH using pH automatic measuring apparatus (Radiometer Copenhagen). The test compound, encapsulated in a gelatin capsule, was orally administered one hour before histamine administration.

fundic pouch dog [2] = test: Suppressing action on gastric acid secretion (tetragastrin stimulation) in fundic pouch dog; assay type: in vivo; settings: for Amount of gastric juice secretion: tetragastrin stimulation 2 μg/kg/hr, control 40.1 ± 3.9, mean ± standard error for 6 samples
Procedure: as §1
Experiment was conducted in a similar manner as Example 1 except that the stimulating agent was replaced with tetragastrin(2 μg/kg/hr).

Question: What does the source list for `O=C(N[C@H]1CN2CCC1CC2)c1cnc2ccsc2c1O` [Test compound, R-(−)-N-(1-azabicyclo[2.2.2]oct-3-yl)-7-hydroxythieno[3,2-b]-pyridine-6-carboxamide]?
Answer: Amount of gastric juice secretion (fundic pouch dog [1]; 3 μg/kg oral (gelatin capsule) one hour before histamine): 76.8 ± 7.4 mEq/4 hr; Amount of gastric juice secretion (fundic pouch dog [1]; 10 μg/kg oral (gelatin capsule) one hour before histamine): 61.9 ± 5.5 mEq/4 hr; secretion of gastric juice by histamine stimulation (result in words) (fundic pouch dog [1]; histamine stimulation, fundic pouch dog): suppressed; Amount of gastric juice secretion (fundic pouch dog [2]; 10 μg/kg oral): 26.7 ± 7.8 mEq/4 hr; Amount of gastric juice secretion (fundic pouch dog [2]; 30 μg/kg oral): 12.9 ± 5.3 mEq/4 hr; secretion of gastric juice by tetragastrin stimulation (result in words) (fundic pouch dog [2]; tetragastrin stimulation, fundic pouch dog): suppressed
